Tests used:
[1] = target: T1, Serine/threonine-protein kinase D2 (Homo sapiens) (UniProt Q9BZL6); assay: Selectivity interaction (Kinase screening (Nanosyn)) EUB0000604a PRKD2
T1 sequence (whole entry): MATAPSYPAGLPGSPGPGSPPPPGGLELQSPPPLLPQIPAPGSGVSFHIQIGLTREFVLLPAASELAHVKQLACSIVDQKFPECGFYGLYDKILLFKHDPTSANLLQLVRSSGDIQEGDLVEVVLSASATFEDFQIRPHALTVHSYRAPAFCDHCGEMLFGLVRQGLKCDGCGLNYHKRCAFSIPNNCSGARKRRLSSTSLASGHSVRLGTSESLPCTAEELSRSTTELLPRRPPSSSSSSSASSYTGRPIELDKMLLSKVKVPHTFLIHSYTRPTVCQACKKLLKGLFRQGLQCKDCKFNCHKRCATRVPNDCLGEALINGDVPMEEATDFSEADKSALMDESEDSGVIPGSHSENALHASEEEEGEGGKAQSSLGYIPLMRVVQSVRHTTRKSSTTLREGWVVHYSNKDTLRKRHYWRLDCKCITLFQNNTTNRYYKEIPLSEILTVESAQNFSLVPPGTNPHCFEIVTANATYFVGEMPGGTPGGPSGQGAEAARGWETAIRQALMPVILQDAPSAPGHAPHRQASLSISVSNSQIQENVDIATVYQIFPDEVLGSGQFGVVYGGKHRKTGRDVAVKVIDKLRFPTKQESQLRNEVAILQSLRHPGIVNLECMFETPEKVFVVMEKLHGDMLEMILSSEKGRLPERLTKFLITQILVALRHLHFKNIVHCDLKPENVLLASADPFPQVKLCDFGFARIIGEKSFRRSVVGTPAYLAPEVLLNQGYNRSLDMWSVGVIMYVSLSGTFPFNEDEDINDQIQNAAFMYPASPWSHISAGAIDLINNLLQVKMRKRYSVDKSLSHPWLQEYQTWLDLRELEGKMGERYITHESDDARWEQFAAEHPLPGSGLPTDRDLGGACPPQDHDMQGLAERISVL

[2] = target: Wee1-like protein kinase 2 (Homo sapiens) (UniProt P0C1S8); assay: Selectivity interaction (KinomeScan (DiscoverX)) EUB0001049a WEE2; settings: at 1 µM
Chain of Wee1-like protein kinase 2 (Homo sapiens) (P0C1S8 whole entry, looked up): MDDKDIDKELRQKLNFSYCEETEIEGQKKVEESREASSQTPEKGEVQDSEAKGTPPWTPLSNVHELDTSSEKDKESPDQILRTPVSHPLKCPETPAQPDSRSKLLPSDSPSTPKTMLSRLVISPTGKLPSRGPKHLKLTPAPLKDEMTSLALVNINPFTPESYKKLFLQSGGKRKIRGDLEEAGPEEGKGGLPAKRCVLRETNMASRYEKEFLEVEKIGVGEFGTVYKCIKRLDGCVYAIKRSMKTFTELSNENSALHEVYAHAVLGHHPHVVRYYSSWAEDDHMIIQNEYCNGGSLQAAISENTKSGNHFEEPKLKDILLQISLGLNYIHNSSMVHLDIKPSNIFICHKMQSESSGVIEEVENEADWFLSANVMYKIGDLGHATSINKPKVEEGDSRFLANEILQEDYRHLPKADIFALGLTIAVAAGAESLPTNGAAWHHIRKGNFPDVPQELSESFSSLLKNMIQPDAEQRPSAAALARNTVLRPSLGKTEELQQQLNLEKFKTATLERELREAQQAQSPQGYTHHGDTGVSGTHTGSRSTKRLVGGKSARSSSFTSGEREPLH

[3] = target: T2, Rhodopsin kinase GRK7 (Homo sapiens) (UniProt Q8WTQ7); assay: Selectivity interaction (Ambit KINOMEscan and KiNATiv profiling in Jurkat cells) EUB0000090b GRK7; type: cell-based; settings: at 1 µM
T2 sequence (whole entry): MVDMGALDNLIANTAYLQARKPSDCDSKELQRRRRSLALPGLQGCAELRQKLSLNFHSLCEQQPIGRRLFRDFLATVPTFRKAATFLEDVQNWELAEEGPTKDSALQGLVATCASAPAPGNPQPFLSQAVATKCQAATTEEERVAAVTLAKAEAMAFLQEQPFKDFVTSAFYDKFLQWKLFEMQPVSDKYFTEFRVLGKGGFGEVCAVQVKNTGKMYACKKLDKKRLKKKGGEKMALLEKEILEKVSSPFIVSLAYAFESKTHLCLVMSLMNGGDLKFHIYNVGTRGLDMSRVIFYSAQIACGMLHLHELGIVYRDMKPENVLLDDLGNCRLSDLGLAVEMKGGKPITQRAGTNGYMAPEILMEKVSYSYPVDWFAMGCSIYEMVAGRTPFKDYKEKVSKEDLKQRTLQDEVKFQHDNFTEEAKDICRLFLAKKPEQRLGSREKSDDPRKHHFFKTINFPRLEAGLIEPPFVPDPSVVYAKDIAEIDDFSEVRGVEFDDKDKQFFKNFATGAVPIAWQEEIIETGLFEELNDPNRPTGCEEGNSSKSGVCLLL

[4] = target: 5'-AMP-activated protein kinase catalytic subunit alpha-1 (Homo sapiens, UniProt Q13131); assay: Selectivity interaction (Ambit KINOMEscan and KiNATiv profiling in Jurkat cells) EUB0000090b PRKAA1; type: cell-based; settings: at 1 µM
Chain of 5'-AMP-activated protein kinase catalytic subunit alpha-1 (Q13131 whole entry, looked up): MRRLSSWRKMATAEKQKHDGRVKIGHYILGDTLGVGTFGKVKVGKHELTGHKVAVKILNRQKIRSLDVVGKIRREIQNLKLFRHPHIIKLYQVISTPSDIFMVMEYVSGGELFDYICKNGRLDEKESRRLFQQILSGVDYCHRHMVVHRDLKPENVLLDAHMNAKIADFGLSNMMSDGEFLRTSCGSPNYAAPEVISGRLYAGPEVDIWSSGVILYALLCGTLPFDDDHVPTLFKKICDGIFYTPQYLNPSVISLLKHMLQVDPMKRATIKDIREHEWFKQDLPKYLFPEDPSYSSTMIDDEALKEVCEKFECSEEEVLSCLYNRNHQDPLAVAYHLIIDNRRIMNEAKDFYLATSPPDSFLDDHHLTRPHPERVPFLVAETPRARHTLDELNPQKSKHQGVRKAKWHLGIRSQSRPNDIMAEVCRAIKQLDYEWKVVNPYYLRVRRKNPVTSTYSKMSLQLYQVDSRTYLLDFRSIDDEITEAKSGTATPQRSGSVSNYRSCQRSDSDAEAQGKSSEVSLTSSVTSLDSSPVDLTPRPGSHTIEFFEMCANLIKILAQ

[5] = target: Casein kinase II subunit alpha' (Homo sapiens) (UniProt P19784); assay: Selectivity interaction (ActivX KiNativ screen (kinase selectivity in THP-1 cell lysates)) EUB0000639a CSNK2A2; type: subcellular; settings: lysate
Chain of Casein kinase II subunit alpha' (Homo sapiens) (P19784 whole entry, looked up): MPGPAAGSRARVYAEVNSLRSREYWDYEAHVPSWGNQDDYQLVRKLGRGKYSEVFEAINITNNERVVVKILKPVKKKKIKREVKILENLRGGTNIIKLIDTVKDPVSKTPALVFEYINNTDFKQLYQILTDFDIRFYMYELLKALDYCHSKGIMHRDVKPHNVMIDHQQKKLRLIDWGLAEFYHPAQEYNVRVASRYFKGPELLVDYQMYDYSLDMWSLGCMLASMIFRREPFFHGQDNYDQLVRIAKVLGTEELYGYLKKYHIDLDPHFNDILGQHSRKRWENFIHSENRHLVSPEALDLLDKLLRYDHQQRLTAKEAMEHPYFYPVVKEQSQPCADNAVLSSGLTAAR

[6] = target: Serine/threonine-protein kinase pim-3 (Homo sapiens) (UniProt Q86V86); settings: at 10 µM
[7] = target: Myosin light chain kinase 2, skeletal/cardiac muscle (Homo sapiens) (UniProt Q9H1R3); assay: Selectivity interaction (KinomeScan (DiscoverX)) EUB0000595a MYLK2; settings: at 10 µM
Chain of Myosin light chain kinase 2, skeletal/cardiac muscle (Homo sapiens) (Q9H1R3 whole entry): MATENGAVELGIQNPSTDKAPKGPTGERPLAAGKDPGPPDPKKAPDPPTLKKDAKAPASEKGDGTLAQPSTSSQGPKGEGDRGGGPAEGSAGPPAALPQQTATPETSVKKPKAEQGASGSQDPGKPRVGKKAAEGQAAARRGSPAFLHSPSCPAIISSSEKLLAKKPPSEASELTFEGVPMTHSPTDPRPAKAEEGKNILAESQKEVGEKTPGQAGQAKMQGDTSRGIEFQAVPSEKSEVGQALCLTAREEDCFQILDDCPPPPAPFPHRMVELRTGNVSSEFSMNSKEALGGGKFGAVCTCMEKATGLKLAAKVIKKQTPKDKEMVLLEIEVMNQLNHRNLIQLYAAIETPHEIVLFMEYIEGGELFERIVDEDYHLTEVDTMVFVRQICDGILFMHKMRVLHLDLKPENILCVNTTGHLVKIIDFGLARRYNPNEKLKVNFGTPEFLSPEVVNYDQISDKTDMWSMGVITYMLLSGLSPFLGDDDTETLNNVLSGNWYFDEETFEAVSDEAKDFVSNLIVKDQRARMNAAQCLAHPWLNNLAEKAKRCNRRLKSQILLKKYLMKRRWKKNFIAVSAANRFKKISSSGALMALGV

[8] = target: T3, Serine/threonine-protein kinase TNNI3K (Homo sapiens) (UniProt Q59H18); assay: Selectivity interaction (KinomeScan (DiscoverX)) EUB0001079a TNNI3K; settings: at 1 µM
T3 sequence (whole entry): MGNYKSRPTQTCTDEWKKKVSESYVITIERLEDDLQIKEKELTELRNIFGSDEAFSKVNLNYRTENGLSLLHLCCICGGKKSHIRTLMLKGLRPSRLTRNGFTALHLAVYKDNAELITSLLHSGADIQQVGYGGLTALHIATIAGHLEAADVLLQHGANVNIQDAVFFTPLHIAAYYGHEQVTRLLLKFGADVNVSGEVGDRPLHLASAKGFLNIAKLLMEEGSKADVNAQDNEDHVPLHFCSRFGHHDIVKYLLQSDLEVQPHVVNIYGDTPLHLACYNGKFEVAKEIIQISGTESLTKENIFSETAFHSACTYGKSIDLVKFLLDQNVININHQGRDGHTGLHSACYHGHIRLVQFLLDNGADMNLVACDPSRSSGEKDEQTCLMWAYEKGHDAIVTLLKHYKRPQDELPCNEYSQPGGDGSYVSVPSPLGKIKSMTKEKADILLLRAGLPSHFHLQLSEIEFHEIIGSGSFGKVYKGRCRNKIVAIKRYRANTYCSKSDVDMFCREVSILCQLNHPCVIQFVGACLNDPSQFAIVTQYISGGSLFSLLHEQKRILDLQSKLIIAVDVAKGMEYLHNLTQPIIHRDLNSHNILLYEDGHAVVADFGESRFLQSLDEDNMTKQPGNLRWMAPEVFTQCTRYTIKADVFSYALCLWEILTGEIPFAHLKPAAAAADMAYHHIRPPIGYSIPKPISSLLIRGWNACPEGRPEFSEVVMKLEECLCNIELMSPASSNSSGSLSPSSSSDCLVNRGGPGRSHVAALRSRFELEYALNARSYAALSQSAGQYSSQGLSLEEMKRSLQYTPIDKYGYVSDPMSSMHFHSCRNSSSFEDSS

[9] = target: Serine/threonine-protein kinase mTOR (Homo sapiens, UniProt P42345); assay: Selectivity interaction (KinomeScan (DiscoverX)) EUB0000045b MTOR

With `Cc1cnc(Nc2ccc(F)cc2Cl)nc1-c1c[nH]c(C(=O)N[C@H](CO)c2cccc(Cl)c2)c1` the % of inhibition [1] was 50%.
`COc1cc(Nc2nc(C)cc(-c3cnn4nc(OC)ccc34)n2)cc(C(F)(F)F)c1` was tested, and the % of control [2] was 100%.
`CN(C)C/C=C/C(=O)Nc1ccc(C(=O)N2CCCC(Nc3ncc(Cl)c(-c4c[nH]c5ccccc45)n3)C2)cc1` (centres undefined) gave a % of control [3] of 70% and a % of control [4] of 79%.
For `CC[C@@H]1[C@H](F)C(=O)N[C@@H]1COc1nccc2cc(C(N)=O)c(OC)cc12` [ZIMLOVISERTIB], the % of inhibition ([5]; at 0.01 µM) was -4.5%, the % of inhibition ([5]; at 0.04 µM) was -21.2% and the % of inhibition ([5]; at 0.2 µM) was -18%. It also gave a % of inhibition ([5]; at 1 µM) of -3.6% and a % of inhibition ([5]; at 5 µM) of -2.6%.
`CCN(CC)CCCCNc1ncc2cc(-c3cc(OC)cc(OC)c3)c(NC(=O)NC(C)(C)C)nc2n1` showed a % of control [6] of 100%.
`COCC(=O)NC/C=C/c1ccc2ncnc(Nc3ccc(Oc4ccc(C)nc4)c(C)c3)c2c1` [CP-724714] was tested, and the % of control [7] was 100%.
Molecule `Nc1cnc(N2CCc3cc(S(=O)(=O)Nc4c(F)cc(Cl)cc4F)cc(N4CCCC4=O)c32)nc1` [TP-020n] has a % of control [8] of 49%.
Molecule `C=CC(=O)Nc1cc(-n2c(=O)ccc3cnc4ccc(-c5ccc(NS(C)(=O)=O)cc5)cc4c32)ccc1C` has a % of control ([9]; at 1 µM) of 45% and a % of control ([9]; at 10 µM) of 0%.
